{"source": "paper PMC10788856", "about": "“Mimicking Nonribosomal Peptides from the Marine Actinomycete Streptomyces sp. H-KF8 Leads to Antimicrobial Peptides” (ACS Infectious Diseases, 2023)", "key": {"[1]": {"test_system": "hepatoblastoma (HepG2) cells", "assay_type": "cell-based, human", "experimental": "(§1) To confirm the peptide selectivity toward bacteria cells, cytotoxicity assays of synthesized peptides L2, L3, L3-K, and C3 against human embryonic kidney (HEK) and hepatoblastoma (HepG2) were performed (Figure 4). The cell viability was assessed using resazurin 24 h post peptide exposure. The line at 70% cell viability marks out the threshold for cytotoxic potential compared to the negative control.\n(§2) Figure 4 Cell viability assessment using the resazurin assay 24 h post peptide exposure: (a) HepG2 and (b) HEK cells were treated with various concentrations of the peptides C3, L3, L3-K, and L2. Triton-X was used as a positive control. Cells cultured in pure cell media were used as negative controls and were considered to have 100% cell viability. The line represents the threshold for cytotoxicity level of 70% of cell viability compared to the negative control. Data are presented as the mean ± SD of three biological replicates of the HepG2 cells and the mean ± SD of two biological replicates of the HEK cells.\n(§3) Cytotoxicity against human embryonic kidney (HEK) and hepatoblastoma (HepG2) cell lines was assessed. Cells were grown to an initial seeding density of 10 000 cells per well. Metabolic activity was determined in a resazurin-based assay. HEK and HepG2 cells were exposed to four different concentrations of the peptides for 24 h. Treatment with Triton X-100 at 1% v/v was used as a positive control. Following this exposure period, the cells were treated with resazurin at a final concentration of 0.015 mg/mL for 3 h. The metabolic activity was then determined in an resazurin-based assay. The fluorescence intensities were quantified in a Hidex Sense microplate reader using an excitation wavelength of 544 nm and an emission wavelength of 590 nm."}, "C. albicans": {"test_system": "C. albicans", "experiment": "microbe, parasite or virus in culture", "assay_type": "cell-based", "conditions": "16 h"}, "[2]": {"test_system": "Escherichia coli (CCUG 31246)", "experiment": "Minimum microbicidal concentration (MMC99) assay", "assay_type": "cell-based, E. coli", "conditions": "BHI diluted 1/100", "experimental": "(§4) The microbicidal activity of the synthetic peptides was assessed against S. aureus (ATCC 12600; American Type Culture Collection, Manassas, VA, USA), Escherichia coli (CCUG 31246; Culture Collection, University of Gothenburg, Sweden), and Candida albicans (ATCC 64549/CCUG31028) using an MMC assay, as described previously by […] et al. (specific details in Supporting Information, pages 10, 11).[28] The assay was performed in BHI diluted 1/100 (BHI100). […] page 11: Table S5. Energy and structural ensembles of synthesized peptides. […] Energy -3887.06 -3620.88 -4968.42 -2163.76 -2646.75 Van der Waals solv. Energy 117.32 91.57 183.20 -88.88 -139.89 Mean RMSD* (Å), mean±SD […] Heavy atoms 1.87 ± 0.33 1.77 ± 0.50 0.98 ± 0.34 0.63 ±0.22 2.88 ±0.62 MMC99 activity including salt stability measurements Antimicrobial activity of L2 and L3 in the presence of NaCl. 1Table S6. Peptide MMC99 (μg/ml) sin NaCl S. aureus E.coli C. albicans (mM) 2[…] 0 50 25 25 85 - - - - - - >200 >200 >200 150 - - - - - - >200 >200 >200 3L 0 12.5 12.5 25 12,5 6.3 6.3 12.5 6.3 12.5 […] 150 >400 >400 (-)2 >400 >400 >400 >200 >200 >200 […] or 150 mM NaCl. L2 and L3 were serially diluted in twofold steps with a starting dilution of 200 μg/ml […] All sample dilutions were run in duplicates (L2) or triplicates (L3). 2 The growth of S. aureus at 24 h in BHI 100 with 85 or 150 mM NaCl was reduced. Minimum microbicidal concentration (MMC), killing 99% of the inoculum. All microorganisms were cultured in brain-heart infusion broth (BHI) overnight on a shaker at 37°C. The cultures were thereafter transferred to fresh BHI broth in volumes constituting 10% of total, and incubated for an additional 2 h to reach exponential growth phase. The bacterial cultures were washed once in BHI diluted 1/100 (BHI100), followed by resuspension in BHI100. The cell suspensions were diluted to a density of […] (bacteria) or 2x10^7 CFU/ml (yeast), as estimated by optical density measurement at 590 nm. […] Serum stability Figure S 133. […] A) peptide L2 B) peptide L3. C) peptide L3-K. D) peptide C3."}, "[3]": {"test_system": "human embryonic kidney (HEK) cells", "assay_type": "cell-based", "experimental": "as §1, §2, §3"}, "S. aureus (ATCC 12600)": {"test_system": "S. aureus (ATCC 12600)", "experiment": "Minimum microbicidal concentration (MMC99) assay", "assay_type": "cell-based", "conditions": "BHI diluted 1/100, 37 °C, median, n = 3", "experimental": "as §4"}, "[4]": {"conditions": "37 °C, RP-HPLC", "experimental": "Peptide stability in serum is another limiting factor for AMPs as novel antibiotics.[30]\nPeptide serum stability was performed according to D́Aloisio et al.[30] and Chen et al.[51] with some minor modifications. The serum stability was investigated using human serum (Sigma-Aldrich) from Human male AB plasma, USA origin, sterile-filtered. 250 μL serum was temperature-equilibrated at 37 °C and 100 μL aqueous peptide solution (L2: 1 mM; L3: 0.9 mM; L3-K: 0.7 mM; and C3: 0.5 mM) was added. RP-HPLC was measured at time intervals of 0, 0.5, 1, 4, and 24 h. For RP-HPLC samples, 30 μL of peptide solution was taken, 7 μL of Fmoc-Gly solution (4 mM) was added, and 2 μL of the sample was injected to HPLC. […]\nFigure S 133. RP-HPLC chromatogram (gradient from 10 to 90% acetonitrile in water over 10 min at 2\nml/min, detection at 254 nm) of peptides tested for serum stability. A) peptide L2 B) peptide L3. C)\n(1 picture or pasted object on this page, not shown here)"}}, "note": "Numbered stars: 1 amine (or outer) side, 2 acyl side, 3 side chain; on linkers, the order of the positions; unused ones are H or OH. Bridge positions count the residues as written; N and C are the ends. Square brackets hold non-standard residues; d marks the D form. Peptide text beside a SMILES is read from it. Tyr(3-NO2) = N[C@@H](Cc1ccc(O)c([N+](=O)[O-])c1)C(=O)O; Glutaryl = O=C(CCCC(=O)[*:2])[*:1]; Orn = NCCC[C@H](N)C(=O)O", "data": [{"molecule": "CC(C)[C@H]1NC(=O)[C@H](CCCN)NC(=O)[C@H]([C@@H](C)O)NC(=O)[C@H](CCCN)NC(=O)[C@H](Cc2c[nH]c3ccccc23)NC(=O)[C@@H](C)NC(=O)[C@@H](C(C)C)NC(=O)[C@@H](C)NC(=O)[C@H](Cc2c[nH]c3ccccc23)NC(=O)CCCC(=O)NCCCC[C@@H](C(N)=O)NC(=O)[C@H](Cc2ccc(O)c([N+](=O)[O-])c2)NC1=O", "note": "[C3] (W[dA][dV][dA]W[Orn]T[Orn][dV][Tyr(3-NO2)]K-NH2; linker N-11 via Glutaryl)", "values": [{"measurement": "cytotoxicity, cell viability HepG2", "setting": "[1]", "value": "at the highest tested concentration seems to have cytotoxic properties"}, {"measurement": "C. albicans MIC", "setting": "C. albicans", "value": ">512", "unit": "µg/mL"}, {"measurement": "active concentrations against E. coli (MMC99, text)", "setting": "[2]", "value": "≥ 100", "unit": "µg/mL"}, {"measurement": "E. coli MMC99 2 h", "setting": "[2]; 37 °C, 2 h, median, n = 3", "value": ">100", "unit": "µg/mL"}, {"measurement": "E. coli MMC99 6 h", "setting": "[2]; 37 °C, 6 h, median, n = 3", "value": ">100", "unit": "µg/mL"}, {"measurement": "E. coli MMC99 24 h", "setting": "[2]; 37 °C, 24 h, median, n = 3", "value": 100, "unit": "µg/mL"}, {"measurement": "cytotoxicity, cell viability HEK", "setting": "[3]", "value": "at the highest tested concentration seems to have cytotoxic properties"}, {"measurement": "S. aureus MMC99 6 h", "setting": "S. aureus (ATCC 12600); 6 h", "value": ">100", "unit": "µg/mL"}, {"measurement": "S. aureus MMC99 24 h", "setting": "S. aureus (ATCC 12600); 24 h", "value": ">100", "unit": "µg/mL"}, {"measurement": "S. aureus MMC99 2 h", "setting": "S. aureus (ATCC 12600); lowest concentration killing 99% of inoculum, 2 h, two-fold dilutions 100-1.6 μg/mL", "value": ">100", "unit": "µg/mL"}, {"measurement": "stability in human serum", "setting": "[4]; human serum from male AB plasma, 250 μL serum + 100 μL aqueous peptide solution (L2 1 mM; L3 0.9 mM; L3-K 0.7 mM; C3 0.5 mM), 0, 0.5, 1, 4, 24 h, Fmoc-Gly internal standard", "value": "stable after 24 h"}, {"measurement": "additional peaks / shoulder in chromatogram after 24 h in serum, total volume percentage", "setting": "[4]; human serum, 24 h, detection at 254 nm", "value": "does not show any additional signal"}]}]}
